# According to ChEMBL document CHEMBL5390297, “New Teixobactin Analogues with a Total Lactam Ring” (2023):
# What was measured:
# Format in all cases: functional
# Staphylococcus aureus [1] = assay: Antibacterial activity against methicillin-resistant Staphylococcus aureus ATCC 33591 assessed as reduction in bacterial growth incubated for 24 hrs by CLSI based broth microdilution method
# Staphylococcus aureus [2] = assay: Antibacterial activity against Staphylococcus aureus ATCC 25923 assessed as reduction in bacterial growth incubated for 18 hrs by CLSI based broth microdilution method
# Escherichia coli = assay: Antibacterial activity against Escherichia coli ATCC 25922 assessed as reduction in bacterial growth incubated for 18 hrs by CLSI based broth microdilution method
# [3] = tested on: Staphylococcus epidermidis; assay: Antibacterial activity against Staphylococcus epidermidis ATCC 14990 assessed as reduction in bacterial growth incubated for 18 hrs by CLSI based broth microdilution method
# Nakaseomyces glabratus = assay: Antifungal activity against Candida glabrata ATCC 15126 assessed as reduction in bacterial growth incubated for 24 hrs by CLSI based broth microdilution method
MIC (Escherichia coli) [µg/mL],MIC (Nakaseomyces glabratus) [µg/mL],Compound,MIC (Staphylococcus aureus [1]) [µg/mL],MIC (Staphylococcus aureus [2]) [µg/mL],MIC [3] [µg/mL]
> 512,> 512,CC[C@H](C)[C@H](NC(=O)[C@H](N)Cc1ccccc1)C(=O)N[C@@H](CO)C(=O)N[C@H](CCCNC(=N)N)C(=O)N[C@@H](C(=O)N[C@H](C(=O)N[C@@H](CO)C(=O)N[C@@H]1CNC(=O)[C@H]([C@@H](C)CC)NC(=O)[C@H](CCCNC(=N)N)NC(=O)[C@H](C)NC1=O)[C@@H](C)CC)[C@@H](C)CC,–,–,–
> 512,> 512,CC[C@H](C)[C@H](NC(=O)[C@H](N)Cc1ccccc1)C(=O)N[C@@H](CO)C(=O)N[C@H](CCC(N)=O)C(=O)N[C@@H](C(=O)N[C@H](C(=O)N[C@@H](CO)C(=O)N[C@@H]1CNC(=O)[C@H]([C@@H](C)CC)NC(=O)[C@H](CCCNC(=N)N)NC(=O)[C@H](C)NC1=O)[C@@H](C)CC)[C@@H](C)CC,–,–,–
> 512,> 512,CCCC[C@@H]1NC(=O)[C@H](CCCNC(=N)N)NC(=O)[C@H](C)NC(=O)[C@H](NC(=O)[C@H](CO)NC(=O)[C@@H](NC(=O)[C@H](NC(=O)[C@@H](CCC(N)=O)NC(=O)[C@H](CO)NC(=O)[C@@H](NC(=O)[C@@H](Cc2ccccc2)NC)[C@@H](C)CC)[C@@H](C)CC)[C@@H](C)CC)CNC1=O,–,–,–
> 512,> 512,CC[C@H](C)[C@@H]1NC(=O)[C@H](CCCNC(=N)N)NC(=O)[C@H](C)NC(=O)[C@H](NC(=O)[C@H](CO)NC(=O)[C@@H](NC(=O)[C@H](NC(=O)[C@@H](CCC(N)=O)NC(=O)[C@H](CO)NC(=O)[C@@H](NC(=O)[C@@H](Cc2ccccc2)NC)[C@@H](C)CC)[C@@H](C)CC)[C@@H](C)CC)CNC1=O,–,–,–

Compound,MIC (Escherichia coli) [µg/mL],MIC (Nakaseomyces glabratus) [µg/mL],MIC (Staphylococcus aureus [1]) [µg/mL],MIC (Staphylococcus aureus [2]) [µg/mL],MIC [3] [µg/mL]
CCCC[C@@H]1NC(=O)[C@H](CCCNC(=N)N)NC(=O)[C@H](C)NC(=O)[C@H](NC(=O)[C@H](CO)NC(=O)[C@@H](NC(=O)[C@H](NC(=O)[C@@H](CCC(N)=O)NC(=O)[C@H](CO)NC(=O)[C@@H](NC(=O)[C@H](N)Cc2ccccc2)[C@@H](C)CC)[C@@H](C)CC)[C@@H](C)CC)CNC1=O,> 512,> 512,4,4,8
